Experimental data taken from ChEMBL document CHEMBL1201862, “PubChem BioAssay data set” (2004).
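1) Cells in 96-well plates. 2) Compound, 48 h, 5 concentrations. 3) Linear interpolation between surrounding doses. 4) Unreached endpoint = highest concentration. GI50 marks 50% less growth.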 Activity calls are given as the source filed them. Rule as the data show it: active = GI50 up to about 1.1 µM and inactive = higher.

What was measured:
Experiment in all cases: NCI anticancer screen, dose series, 48 h
[1] = system: SK-MEL-5
[2] = system: UO-31
[3] = system: HOP-92
[4] = system: OVCAR-3
[5] = system: MOLT-4
[6] = system: SNB-75
[7] = system: SR
[8] = system: TK-10
[9] = system: HL-60
[10] = system: SF-539
[11] = system: CAKI-1
[12] = system: M19-MEL
[13] = system: NCI-H522
[14] = system: NCI-H226
[15] = system: KM12
[16] = system: DU-145
[17] = system: OVCAR-8
[18] = system: BT-549
[19] = system: CCRF-CEM
[20] = system: SNB-19

Measured: GI50

C1CN(c2nnc(N3CCC3)nn2)C1
inactive: [1] 25.2 µM | [2] > 100 µM | [3] > 100 µM | [4] > 92.7 µM | [5] > 100 µM | [6] 21 µM | [7] > 100 µM | [8] > 100 µM | [9] > 100 µM | [10] 44.8 µM | [11] > 94.4 µM | [12] 15.1 µM | [13] 44.4 µM | [14] > 96.6 µM | [15] > 89.5 µM | [16] > 100 µM | [17] > 100 µM | [18] > 65.9 µM | [19] > 100 µM | [20] > 67.9 µM
